Measured values: patent US6875451B2, “Compositions and methods for the treatment of primary and metastatic neoplastic diseases using arsenic compounds” (PolaRx Biopharmaceuticals Inc., priority 1997, dated 2005)

Assays:
Format in all cases: cell-based
[1] = system: MDA-N; assay: SRB growth assay, 6 days exposure, breast cancer
Method: (§1) Arsenic trioxide (1 mg/ml, 10 mg/ampoule, manufactured by Taylor Pharmaceuticals, Decatur, Ill.) was tested at five concentrations each at 10-fold dilutions, i.e., 10^−5, 10^−6, 10^−7, 10^−8 and 10^−9 μg/ml.
(§2) The in vitro tests were performed by incubating the test cells in the presence of the indicated concentration of arsenic trioxide under standard culture conditions for a designated period of time, which is followed by a sulforhodamine B (SRB) protein assay to estimate cell viability or growth. The cell lines are organized into subpanels according to the origin of the cell lines, e.g., leukemia, breast cancer, etc. A description of the cell lines and method of testing is described in Monk et al. (1997, Anticancer Drug Des. 12:533-41) and Weinstein et al., (1997, Science 275:343-9), which are incorporated herein in their entirety.
(§3) The measurement of an effect is expressed in Percentage Growth (PG). The measured effect of the compound on a cell line is calculated according to one or the other of the following two expressions: If (Mean ODtest−Mean ODzero)≧0. then PG=100×(Mean ODtest−Mean ODzero)/(Mean ODctrl−Mean ODzero) If (Mean ODtest−Mean ODzero)<0. then PG=100×(Mean ODtest−Mean ODzero)/(Mean ODzero where: • Mean ODzero=the average of optical density measurements of SRB-derived color just before exposure of cells to the test compounds; • Mean ODtest=the average of optical density measurements of SRB-derived color after exposure of cells to the test compound for a designated period of time; and • Mean ODctrl=the average of optical density measurements of SRB-derived color after with no exposure of cells to the test compound for a designated period of time
(§4) The first two columns describe the subpanel (e.g., leukemia) and cell line (e.g., CCRF-CEM) involved. The next two columns list the Mean ODzero and Mean ODctrl; the next five columns list the Mean ODtest for each of five different concentrations. Each concentration is expressed as the log10 (molar or μg/ml). The next five columns list the calculated PGs for each concentration. The response parameters GI50, TGI and LC50 are interpolated values representing the concentrations at which the PG is +50, 0, and −50, respectively. Sometimes these response parameters cannot be obtained by interpolation. If, for instance, all of the PGs in a given row exceed +50, then none of the three parameters can be obtained by interpolation. In such a case, the value given for each response parameter is the highest concentration tested and is preceded by a “>” sign. This practice is extended similarly to the other possible situations where a response parameter cannot be obtained by interpolation.
(§5) In the first set, the cells from 56 different cancer cell lines were exposed to five concentrations of arsenic trioxide continuously for two days prior to performing the SRB assay. In the second set, the cells from 50 different cell lines (a subset of the first 56 cell lines, plus the renal cancer cell line 786-0) were exposed continuously for six days prior to the SRB assay.

[2] = system: HS 578T; assay: SRB growth assay, 6 days exposure, breast cancer
Method: as §1, §2, §3, §4, §5

[3] = system: T-47D; assay: SRB growth assay, 6 days exposure, breast cancer
Method: as §1, §2, §3, §4, §5

[4] = system: MDA-MB-435; assay: SRB growth assay, 6 days exposure, breast cancer; conditions: MDA-MB-435, 6 days
Method: as §1, §2, §3, §4, §5

[5] = system: NCI/ADR-RIS; assay: SRB growth assay, 6 days exposure, breast cancer
Method: as §1, §2, §3, §4, §5

[6] = system: BT-549; assay: SRB growth assay, 2 days exposure, breast cancer
Method: as §1, §2, §3, §4, §5

[7] = system: HS 578T; assay: SRB growth assay, 2 days exposure, breast cancer
Method: as §1, §2, §3, §4, §5

[8] = system: NCI/ADR-RES; assay: SRB growth assay, 2 days exposure, breast cancer
Method: as §1, §2, §3, §4, §5

[9] = system: MDA-MB-435; assay: SRB growth assay, 2 days exposure, breast cancer
Method: as §1, §2, §3, §4, §5

[10] = read-out: LC50 (the source's name)

arsenic trioxide
TGI [1]: 9.55E−06
Mean Optical Densities ([1]; Log 10 Concentration −4.9): 0.026
Percent Growth ([1]; Log 10 Concentration −4.9): −9%
Mean Optical Densities ([1]; Log 10 Concentration −5.9): 1.738
Percent Growth ([1]; Log 10 Concentration −5.9): 65%
Mean Optical Densities ([1]; Log 10 Concentration −6.9): 2.606
Percent Growth ([1]; Log 10 Concentration −6.9): 98%
Mean Optical Densities ([1]; Log 10 Concentration −7.9): 2.616
Percent Growth ([1]; Log 10 Concentration −7.9): 99%
Mean Optical Densities ([1]; Log 10 Concentration −8.9): 2.468
Percent Growth ([1]; Log 10 Concentration −8.9): 93%
CC50 [1, 10]: > 12.6 µM
TGI [2]: 4.12E−06
Mean Optical Densities ([2]; Log 10 Concentration −4.9): 0.010
Percent Growth ([2]; Log 10 Concentration −4.9): −91%
Mean Optical Densities ([2]; Log 10 Concentration −5.9): 0.706
Percent Growth ([2]; Log 10 Concentration −5.9): 96%
Mean Optical Densities ([2]; Log 10 Concentration −6.9): 0.890
Percent Growth ([2]; Log 10 Concentration −6.9): 126%
Mean Optical Densities ([2]; Log 10 Concentration −7.9): 0.587
Percent Growth ([2]; Log 10 Concentration −7.9): 77%
Mean Optical Densities ([2]; Log 10 Concentration −8.9): 0.777
Percent Growth ([2]; Log 10 Concentration −8.9): 108%
TGI [3]: 2.90E−06
Mean Optical Densities ([3]; Log 10 Concentration −4.9): 0.027
Percent Growth ([3]; Log 10 Concentration −4.9): −73%
Mean Optical Densities ([3]; Log 10 Concentration −5.9): 0.398
Percent Growth ([3]; Log 10 Concentration −5.9): 41%
Mean Optical Densities ([3]; Log 10 Concentration −6.9): 0.539
Percent Growth ([3]; Log 10 Concentration −6.9): 61%
Mean Optical Densities ([3]; Log 10 Concentration −7.9): 0.336
Percent Growth ([3]; Log 10 Concentration −7.9): 33%
Mean Optical Densities ([3]; Log 10 Concentration −8.9): 0.883
Percent Growth ([3]; Log 10 Concentration −8.9): 108%
TGI [4]: 3.10E−06
Mean Optical Densities ([4]; Log 10 Concentration −4.9): 0.021
Percent Growth ([4]; Log 10 Concentration −4.9): −62%
Mean Optical Densities ([4]; Log 10 Concentration −5.9): 0.631
Percent Growth ([4]; Log 10 Concentration −5.9): 40%
Mean Optical Densities ([4]; Log 10 Concentration −6.9): 0.865
Percent Growth ([4]; Log 10 Concentration −6.9): 56%
Mean Optical Densities ([4]; Log 10 Concentration −7.9): 1.470
Percent Growth ([4]; Log 10 Concentration −7.9): 98%
Mean Optical Densities ([4]; Log 10 Concentration −8.9): 1.276
Percent Growth ([4]; Log 10 Concentration −8.9): 85%
TGI [5]: >1.26E−05
Mean Optical Densities ([5]; Log 10 Concentration −4.9): 0.072
Percent Growth ([5]; Log 10 Concentration −4.9): 1%
Mean Optical Densities ([5]; Log 10 Concentration −5.9): 1.319
Percent Growth ([5]; Log 10 Concentration −5.9): 56%
Mean Optical Densities ([5]; Log 10 Concentration −6.9): 1.951
Percent Growth ([5]; Log 10 Concentration −6.9): 84%
Mean Optical Densities ([5]; Log 10 Concentration −7.9): 2.253
Percent Growth ([5]; Log 10 Concentration −7.9): 98%
Mean Optical Densities ([5]; Log 10 Concentration −8.9): 2.075
Percent Growth ([5]; Log 10 Concentration −8.9): 90%
CC50 [5, 10]: > 12.6 µM
TGI [6]: >0.0126 ng/mL
Percent Growth ([6]; log10 conc −4.9): 26%
Percent Growth ([6]; log10 conc −5.9): 84%
Percent Growth ([6]; log10 conc −6.9): 108%
Percent Growth ([6]; log10 conc −7.9): 110%
Percent Growth ([6]; log10 conc −8.9): 114%
TGI [7]: >0.0126 ng/mL
Percent Growth ([7]; log10 conc −4.9): 42%
Percent Growth ([7]; log10 conc −5.9): 105%
Percent Growth ([7]; log10 conc −6.9): 96%
Percent Growth ([7]; log10 conc −7.9): 105%
Percent Growth ([7]; log10 conc −8.9): 109%
TGI [8]: >0.0126 ng/mL
Percent Growth ([8]; log10 conc −4.9): 45%
Percent Growth ([8]; log10 conc −5.9): 92%
Percent Growth ([8]; log10 conc −6.9): 104%
Percent Growth ([8]; log10 conc −7.9): 99%
Percent Growth ([8]; log10 conc −8.9): 118%
TGI [9]: >0.0126 ng/mL
Percent Growth ([9]; log10 conc −4.9): 21%
Percent Growth ([9]; log10 conc −5.9): 94%
Percent Growth ([9]; log10 conc −6.9): 105%
Percent Growth ([9]; log10 conc −7.9): 93%
Percent Growth ([9]; log10 conc −8.9): 94%
